From patent publication US20110177026A1 (priority 2005, published 2011) come the findings set out here.

Common to all, as to format: cell-based
The subject of test [1] is BVDV cytopathic strain NADL.
For test [2], the system named is Vesicular stomatitis virus (VSV) Indiana serotype.
The subject of test [3] is BVDV strain NADL. In words: microbe, parasite or virus in culture.
Where [4] appears, read: VSV-infected cells at MOI=0.01, concentration of 1 mM.
Setting [5] is: cells infected with VSV at MOI>1.

Molecules are shown by their SMILES. Read-outs that look alike come from different tables or passages of the source.

With `CC1OC(OC2C(CO)OC(OC3C(CO)OC(O)C(O)C3O)C(O)C2O)C(O)C(O)C1NC1C=C(CO)C(O)C(O)C1O` [acarbose, O-4,6-dideoxy-4-[[(1S,4R,5S,6S)-4,5,6-trihydroxy-3-(hydroxymethyl)-2-cyclohexen-1-yl]amino]-α-D-glucopyranosyl-(1→4)-O-α-D-glucopyranosyl-(1→4)-D-glucose], the antiviral activity result in test [1] is “only the positive control CTS exhibited antiviral activity”; in test [2] (setting [4]) it was “exhibited antiviral activity”; in test [2] (setting [5]), “none”. In addition, in test [3], the “inhibition of BVDV replication” value is recorded as “potent antiviral agents that inhibit BVDV replication”.
Take `OCCN1CC(O)C(O)C(O)C1CO` (stereo not drawn) [miglitol, 3,4,5-piperidinetriol, 1-(2-hydroxyethyl)-2-(hydroxymethyl)-, [2R-(2α, 3β,4α,5β)]]: the antiviral activity entry was “only the positive control CTS exhibited antiviral activity” in test [1], “exhibited antiviral activity” in test [2] (setting [4]) and “none” in test [2] (setting [5]). Besides, the “inhibition of BVDV replication” value in test [3] is “potent antiviral agents that inhibit BVDV replication”. The EC50 in test [3] (Bovine viral diarrhea virus isolates and strains, MDBK, read-out: Dm) was found to be 221 µM.
On to `O[C@H]1[C@H](O)[C@@H](O)CN2CC[C@H](O)[C@H]12` [CTS, Castanospermine], for which the antiviral activity entry in test [1] was “exhibited antiviral activity”; in test [2] (setting [4]), “exhibited antiviral activity”; in test [2] (setting [5]) it was “none”.
